Three compounds from US20140090094A1, “MODULATORS OF SLC22A7” (BAYER INTELLECTUAL PROPERTY GmbH, priority 2011, published 2014) can be followed below.

Each structure is given as a SMILES string. Where “and” joins values, the source holds several entries; their conditions need not be identical. Equal values may be shown once.

In assay [1] the target is T1, OAT2r (Rattus norvegicus, UniProt Q5RLM2).
T1 construct: expressed in transfected cells
T1 sequence (Q5RLM2 1-535): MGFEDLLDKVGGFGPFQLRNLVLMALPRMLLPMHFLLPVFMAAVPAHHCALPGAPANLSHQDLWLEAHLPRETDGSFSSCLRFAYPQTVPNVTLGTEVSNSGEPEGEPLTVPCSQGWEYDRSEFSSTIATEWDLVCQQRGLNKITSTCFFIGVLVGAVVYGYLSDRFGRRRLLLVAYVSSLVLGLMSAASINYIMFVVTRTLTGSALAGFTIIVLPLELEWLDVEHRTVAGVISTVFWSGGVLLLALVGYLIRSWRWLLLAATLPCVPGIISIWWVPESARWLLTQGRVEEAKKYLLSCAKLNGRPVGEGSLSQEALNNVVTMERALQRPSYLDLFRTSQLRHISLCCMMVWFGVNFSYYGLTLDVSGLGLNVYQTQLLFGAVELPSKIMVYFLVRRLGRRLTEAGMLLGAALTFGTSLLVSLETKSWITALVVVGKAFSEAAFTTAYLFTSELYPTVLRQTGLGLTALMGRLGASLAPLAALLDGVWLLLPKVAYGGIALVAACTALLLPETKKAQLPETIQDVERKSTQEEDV
Nature of the assay: 1 min uptake into 293 cells expressing OAT2 from rat.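 For all read-outs here: uptake at 37 °C, read by liquid scintillation counting or LC-ESI-MS/MS, carrier-mediated part as induced-minus-uninduced expression difference corrected for baseline content, protein by BCA assay.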 Format: cell-based. Particulars: for clearance: 1 min uptake, 0.1 μmol/l radiotracer; for uptake after preloading with orotic acid (factor f): 1 h preincubation ±100 μmol/l unlabeled orotic acid, 3H-orotic acid 0.1 μmol/l 1 min, trigonelline 10 μmol/l 5 min.
Method: (§1) Cells were used for uptake experiments at a confluence of at least 70%. Uptake was measured at 37° C. […] After preincubation for at least 20 minutes in 4 ml of uptake buffer, the buffer was replaced with 2 ml of substrate in uptake buffer. The total substrate concentration if not indicated otherwise was 0.1 μmol/l for radiotracer assays and 10 μmol/l for unlabeled compounds. Incubation was stopped after 1 min by rinsing the cells four times each with 4 ml ice-cold uptake buffer. Radioactivity was determined, after cell lysis with 0.1% v/v Triton X-100 in 5 mmol/l TRIS-HCl pH 7.4, by liquid scintillation counting. For LCelectrospray ionization-MS/MS analysis, cells were lysed with methanol and stored at −20° C.
(§2) After centrifugation (1 min, 16000×g, 20° C.) of thawed lysates, 100 μl of the supernatant was mixed with either 10 μl unlabeled MPP+ iodide (0.5 ng/μl) or biphenyl-4-carboxylic acid (Sigma-Aldrich) as internal standard. […] Atmospheric pressure ionization with positive or negative electrospray was used. For quantification (scan time 150 ms), the optimal collision energy for argon-induced fragmentation in the second quadrupole was determined for each analyte. […] Linear calibration curves were constructed from at least six standards which were prepared using control cell lysates as solvent. Sample analyte content was calculated from the analyte response ratio and the slope of the calibration curve, obtained by linear regression. With LC-MS quantitation, solute content of cell lysates was determined for 4 conditions (paired dishes, incubation time 1 min): a) transporter expression on, uptake buffer; b) expression off, uptake buffer; c) expression on, substrate in uptake buffer; d) expression off, substrate in uptake buffer. Acute uptake mediated by heterologously expressed carrier was then calculated as (c−a)−(d−b). This approach takes into account endogenous solute content and non-specific uptake. Protein was measured by the BCA assay (Pierce) with bovine serum albumin as standard. The protein content of MS samples was estimated from 3 matched cell dishes.

Assay [2] concerns the target T2, OAT2h (Homo sapiens, UniProt Q9Y694).
T2 construct: expressed in transfected cells; host or cells: 293 cells (HEK-293), pEBTetD/OAT2h, doxycycline-inducible
T2 sequence (Q9Y694 1-546 isoform Q9Y694-2): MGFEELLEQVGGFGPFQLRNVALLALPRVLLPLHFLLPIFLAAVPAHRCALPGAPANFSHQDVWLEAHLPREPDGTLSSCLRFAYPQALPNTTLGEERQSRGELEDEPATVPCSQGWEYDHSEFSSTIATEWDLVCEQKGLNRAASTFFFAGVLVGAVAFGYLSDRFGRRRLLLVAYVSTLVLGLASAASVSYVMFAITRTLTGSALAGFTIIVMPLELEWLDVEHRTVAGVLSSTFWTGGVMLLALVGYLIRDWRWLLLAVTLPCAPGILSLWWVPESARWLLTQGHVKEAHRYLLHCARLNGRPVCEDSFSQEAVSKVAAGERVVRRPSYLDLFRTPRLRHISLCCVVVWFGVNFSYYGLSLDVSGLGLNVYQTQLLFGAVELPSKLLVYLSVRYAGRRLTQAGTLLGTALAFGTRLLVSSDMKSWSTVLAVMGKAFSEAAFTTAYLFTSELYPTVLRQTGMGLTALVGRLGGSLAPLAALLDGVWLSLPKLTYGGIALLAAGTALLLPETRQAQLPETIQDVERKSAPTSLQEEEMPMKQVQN
Nature of the assay: 1 min uptake into 293 cells expressing OAT2 from human. Format: cell-based. The following applies: for clearance: 1 min uptake, 0.1 μmol/l radiotracer.
Method: as §1, §2

Where [3] appears, read: initial rate 1 min, 37° C., 10 μmol/l, LC-MS/MS, uptake buffer in the expression period.

By Km is commonly meant the concentration of substrate that gives half-maximal velocity. As for `N[C@@H](CCC(=O)O)C(=O)O` [glutamate], the clearance in assay [1] (sodium-free buffer) is recorded as 24±1 μl min-1 mg protein-1; in assay [1] (standard uptake buffer), 35±3 μl min-1 mg protein-1; in assay [2] (sodium-free buffer) it was 70±5 μl min-1 mg protein-1. The Vmax in assay [2] (saturation of OAT2h-mediated specific uptake, 1 min, sodium-free buffer) turned out to be 36±4 nmol min-1 mg protein-1. Besides, the Km in assay [2] (saturation of uptake, sodium-free buffer, measured as uptake) is 1100 µM.

Consider `O=C(O)c1cc(=O)[nH]c(=O)[nH]1` [orotic acid], for which the clearance in assay [1] (standard uptake buffer) was 106±4 μl min-1 mg protein-1 and 106 μl min-1 mg protein-1; in assay [2] (uptake buffer), 46±1 μl min-1 mg protein-1 and 46 μl min-1 mg protein-1. In addition, the “uptake after preloading with orotic acid (factor f)” value in assay [1] turned out to be 0.7. The “factor of uptake reduction on average” value in assay [1] (sodium chloride replaced by choline, lithium or potassium chloride, or magnesium and calcium omitted) was 0.75.

Consider `C[n+]1cccc(C(=O)[O-])c1` [trigonelline], for which, in assay [1], the “uptake after preloading with orotic acid (factor f)” value is on record as 0.7. The carrier-mediated clearance in assay [1] (setting [3]) amounted to 4.8±0.5 μl min-1 mg protein-1; in assay [2] (setting [3]) it was 121±5 μl min-1 mg protein-1.
